Experimental data reported in patent US20260021046A1, “LIPID NANOPARTICLE AND PHARMACEUTICAL COMPOSITION” (NATIONAL UNIVERSITY CORPORATION HOKKAIDO UNIVERSITY, priority 2022, published 2026).

Tested on: hepatic stellate cells
Test: In vivo mRNA delivery to hepatic stellate cells in TAA-induced liver fibrosis model mice
Conditions: 24 hours
Protocol: Thioacetamide (TAA (TCI, Japan))-induced liver fibrosis models were generated in 4-week-old male BALB/c mise (Sankyo laboratories, Japan). Specifically, TAA dissolved in saline was injected intraperitoneally at an amount of 200 mg/kg of TAA per kg of body weight. This was repeated every 3 days for a total of 10 times. The livers of the liver fibrosis model mice were examined by histopathology and hydroxyproline quantitative assay (Cell Biolabs Inc, USA), and the activation of hepatic stellate cells (HSCs) was confirmed by quantitative real-time polymerase chain reaction (qRT-PCR).
The lipid nanoparticles prepared by using CL15A6 encapsulated the above-described EGFP mRNA or firefly luciferase (FLuc) mRNA (TriLink BioTechnologies, USA), and the lipid nanoparticles were administered intravenously to mice via the tail vein so that the amount of RNA per kg of body weight was 1 mg/kg. Twenty-four hours after the administration, hepatic stellate cells and hepatocytes were collected from the livers of the mice as described in NPL 15. For EGFP mRNA, FACS was used to evaluate delivery efficiency and transfection efficiency, and for FLuc mRNA, the luciferase assay was used to evaluate delivery efficiency as described in NPL 16. • [NPL 15] Ingmar Mederacke, et al., “High-yield and high-purity isolation of hepatic stellate cells from normal and fibrotic mouse livers”, Nature Protocols, Vol. 10, pp. 305-315 • [NPL 16] Ikramy A. Khalil, et al., “Synergism between a cell penetrating peptide and a pH-sensitive cationic lipid in efficient gene delivery based on double-coated nanoparticles”, Journal of Controlled Release, Vol. 275, pp. 107-116
First, the microchannel device (iLiNP device) was operated under different conditions to prepare lipid nanoparticles with different average particle sizes. Specifically, lipid nanoparticles with an average particle size of more than 150 nm (e.g., 180 nm), lipid nanoparticles with an average particle size of 100 to 150 nm (e.g., 130 nm), and lipid nanoparticles with an average particle size of less than 100 nm (e.g., 90 nm) were prepared. The prepared lipid nanoparticles were administered intravenously to mice with liver fibrosis, and the mRNA delivery efficiency and transfection efficiency with respect to hepatic stellate cells and hepatocytes were evaluated 24 hours later.
Next, lipid nanoparticles with different nitrogen/phosphate (N/P) ratios were prepared by mixing a lipid composition containing CL15A6 with mRNA at different ratios. Specifically, lipid nanoparticles with N/P ratios of 4, 8, 12, 16, and 20 were prepared. The prepared lipid nanoparticles were intravenously administered to mice with liver fibrosis, and the mRNA delivery efficiency and transfection efficiency with respect to hepatic stellate cells and hepatocytes were evaluated 24 hours later.
Next, lipid nanoparticles containing different types of helper phospholipids were prepared by changing the type of helper phospholipid in the lipid composition containing CL15A6. As the unsaturated phosphatidylethanolamine, 1,2-dioleoyl-sn-glycero-3-phosphoethanolamine (DOPE) was used. As the unsaturated phosphatidylcholine, 1,2-dioleoyl-sn-glycero-3-phosphocholine (DOPC) was used. As the saturated phospholipid, 1,2-distearoyl-sn-glycero-3-phosphocholine (DSPC) was used. The prepared lipid nanoparticles were intravenously administered to mice with liver fibrosis, and the mRNA delivery efficiency and transfection efficiency with respect to hepatic stellate cells and hepatocytes were evaluated 24 hours later.
Next, lipid nanoparticles containing helper phospholipid (DOPE) at different molar percentages were prepared by changing the molar ratio of the helper phospholipid (DOPE). The prepared lipid nanoparticles were intravenously administered to mice with liver fibrosis, and the mRNA delivery efficiency and transfection efficiency with respect to hepatic stellate cells and hepatocytes were evaluated 24 hours later. […]

[1] = CL15A6 lipid nanoparticles iv, DMG-PEG2K 3 to 5 mol %
[2] = CL15A6 lipid nanoparticles, 1 mg/kg RNA iv, when particle size was reduced (>150 nm, 100 to 150 nm, <100 nm)

SMILES: CCCCC/C=C\C/C=C\CCCCCCCCC(O)(CCCCCCCC/C=C\C/C=C\CCCCC)CCCCOC(=O)C1CCN(C)CC1 [CL15A6, (14z,17z)-5-hydroxy-5-((9z,12z)-octadeca-9,12-dien-1-yl)tricosa-14,17-dien-1-yl 1-methylpiperidine-4-carboxylate]
- mRNA delivery efficiency (CL15A6 lipid nanoparticles iv, DMG-PEG2K 1.5 mol %): decreased
- efficiency of mRNA delivery to hepatic stellate cells [1]: high
- hepatic stellate cells transfected in vivo [1]: ≥ 80%
- delivery of mRNA to hepatic stellate cells (CL15A6 lipid nanoparticles iv, DOPE 20 to 30 mol %): significantly improved
- delivery of mRNA to hepatic stellate cells (CL15A6 lipid nanoparticles iv, DOPE 40 mol %): reduced
- delivery of mRNA to hepatic stellate cells (CL15A6 lipid nanoparticles iv, N/P ratio increased from 4 to 8): significantly improved
- mRNA delivery efficiency (CL15A6 lipid nanoparticles iv, N/P ratio increased from 16 to 20): decreased
- mRNA delivery to hepatic stellate cells (CL15A6 lipid nanoparticles iv, helper phospholipid DOPE compared to DOPC and DSPC): significantly improved
- mRNA delivery efficiency to hepatic stellate cells [2]: linearly improved
- transfection efficiency of hepatic stellate cells [2]: linearly improved
